# Measured values from ChEMBL document CHEMBL1201862, “PubChem BioAssay data set” (2004).
#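 In this assay, cells in 96-well plates receive the compound at five concentrations for 48 hours. Endpoints are linearly interpolated between the surrounding concentrations. The concentration for 50% growth inhibition is given as GI50.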 Activity calls are given as the source filed them. Rule as the data show it: active = GI50 up to about 1.1 µM and inactive = higher.
# Experiments:
# Assay in all cases: growth of human tumour cells (NCI), 48 h
# 786-0 = test system: 786-0
# A549 = test system: A549
# ACHN = test system: ACHN
# CAKI-1 = test system: CAKI-1
# DLD-1 = test system: DLD-1
# DMS-114 = test system: DMS-114
# EKVX = test system: EKVX
# HCC 2998 = test system: HCC 2998
# HCT-116 = test system: HCT-116
# HCT-15 = test system: HCT-15
# HOP-18 = test system: HOP-18
# HOP-92 = test system: HOP-92
# HT-29 = test system: HT-29
# IGROV-1 = test system: IGROV-1
# K562 = test system: K562
# KM-20L2 = test system: KM-20L2
# KM12 = test system: KM12
# LXFL 529 = test system: LXFL 529
# M14 = test system: M14
# MOLT-4 = test system: MOLT-4
# Malme-3M = test system: Malme-3M
# NCI-H226 = test system: NCI-H226
# NCI-H23 = test system: NCI-H23
# NCI-H460 = test system: NCI-H460
# NCI-H522 = test system: NCI-H522
# OVCAR-3 = test system: OVCAR-3
# OVCAR-4 = test system: OVCAR-4
# OVCAR-5 = test system: OVCAR-5
# OVCAR-8 = test system: OVCAR-8
# RPMI-8226 = test system: RPMI-8226
# RXF 393 = test system: RXF 393
# RXF 631 = test system: RXF 631
# SF-295 = test system: SF-295
# SF-539 = test system: SF-539
# SK-MEL-28 = test system: SK-MEL-28
# SK-MEL-2 = test system: SK-MEL-2
# SK-MEL-5 = test system: SK-MEL-5
# SK-OV-3 = test system: SK-OV-3
# SN12C = test system: SN12C
# SNB-19 = test system: SNB-19
# SNB-75 = test system: SNB-75
# SNB-78 = test system: SNB-78
# SR = test system: SR
# SW-620 = test system: SW-620
# TK-10 = test system: TK-10
# U-251 = test system: U-251
# UACC-257 = test system: UACC-257
# UACC-62 = test system: UACC-62
# UO-31 = test system: UO-31
# XF498 = test system: XF498
# A498 = test system: A498
# CCRF-CEM = test system: CCRF-CEM
# COLO 205 = test system: COLO 205
# DMS-273 = test system: DMS-273
# HL-60 = test system: HL-60
# HOP-62 = test system: HOP-62
# LOX IMVI = test system: LOX IMVI
# M19-MEL = test system: M19-MEL
# SF-268 = test system: SF-268
compound,measurement,setting,value
CC(=O)OC1CCn2nnc(COC(=O)NC(C)C)c21 (stereo not drawn),GI50,786-0,> 100 µM (inactive)
same,GI50,A549,> 100 µM (inactive)
same,GI50,ACHN,> 100 µM (inactive)
same,GI50,CAKI-1,> 100 µM (inactive)
same,GI50,DLD-1,> 100 µM (inactive)
same,GI50,DMS-114,> 100 µM (inactive)
same,GI50,EKVX,> 100 µM (inactive)
same,GI50,HCC 2998,> 100 µM (inactive)
same,GI50,HCT-116,> 100 µM (inactive)
same,GI50,HCT-15,> 100 µM
same,GI50,HOP-18,> 100 µM (inactive)
same,GI50,HOP-92,> 100 µM (inactive)
same,GI50,HT-29,> 100 µM (inactive)
same,GI50,IGROV-1,> 100 µM (inactive)
same,GI50,K562,> 100 µM (inactive)
same,GI50,KM-20L2,> 100 µM (inactive)
same,GI50,KM12,> 100 µM (inactive)
same,GI50,LXFL 529,> 100 µM (inactive)
same,GI50,M14,> 100 µM (inactive)
same,GI50,MOLT-4,> 100 µM (inactive)
same,GI50,Malme-3M,> 100 µM (inactive)
same,GI50,NCI-H226,> 100 µM (inactive)
same,GI50,NCI-H23,> 100 µM (inactive)
same,GI50,NCI-H460,> 100 µM (inactive)
same,GI50,NCI-H522,> 100 µM (inactive)
same,GI50,OVCAR-3,> 100 µM (inactive)
same,GI50,OVCAR-4,> 100 µM (inactive)
same,GI50,OVCAR-5,> 100 µM (inactive)
same,GI50,OVCAR-8,> 100 µM (inactive)
same,GI50,RPMI-8226,> 100 µM (inactive)
same,GI50,RXF 393,> 100 µM (inactive)
same,GI50,RXF 631,> 100 µM (inactive)
same,GI50,SF-295,> 100 µM (inactive)
same,GI50,SF-539,> 100 µM (inactive)
same,GI50,SK-MEL-28,> 100 µM (inactive)
same,GI50,SK-MEL-2,> 100 µM (inactive)
same,GI50,SK-MEL-5,> 100 µM (inactive)
same,GI50,SK-OV-3,> 100 µM (inactive)
same,GI50,SN12C,> 100 µM (inactive)
same,GI50,SNB-19,> 100 µM (inactive)
same,GI50,SNB-75,> 100 µM (inactive)
same,GI50,SNB-78,> 100 µM (inactive)
same,GI50,SR,> 100 µM (inactive)
same,GI50,SW-620,> 100 µM (inactive)
same,GI50,TK-10,> 100 µM (inactive)
same,GI50,U-251,> 100 µM (inactive)
same,GI50,UACC-257,> 100 µM (inactive)
same,GI50,UACC-62,> 100 µM (inactive)
same,GI50,UO-31,> 100 µM (inactive)
same,GI50,XF498,> 100 µM (inactive)
COc1ccc2c(c1)C=C(C(C)(C)C)NS2(=O)=O,GI50,786-0,> 100 µM (inactive)
same,GI50,A498,> 100 µM (inactive)
same,GI50,A549,> 100 µM (inactive)
same,GI50,ACHN,> 100 µM (inactive)
same,GI50,CAKI-1,> 100 µM (inactive)
same,GI50,CCRF-CEM,> 100 µM (inactive)
same,GI50,COLO 205,> 100 µM (inactive)
same,GI50,DLD-1,> 100 µM (inactive)
same,GI50,DMS-114,> 100 µM (inactive)
same,GI50,DMS-273,> 100 µM (inactive)
same,GI50,EKVX,> 100 µM (inactive)
same,GI50,HCC 2998,> 100 µM (inactive)
same,GI50,HCT-116,> 100 µM (inactive)
same,GI50,HCT-15,> 100 µM
same,GI50,HL-60,> 100 µM (inactive)
same,GI50,HOP-18,> 100 µM (inactive)
same,GI50,HOP-62,> 100 µM (inactive)
same,GI50,HOP-92,> 100 µM (inactive)
same,GI50,HT-29,> 100 µM (inactive)
same,GI50,IGROV-1,> 100 µM (inactive)
same,GI50,K562,> 100 µM (inactive)
same,GI50,KM-20L2,> 100 µM (inactive)
same,GI50,KM12,> 100 µM (inactive)
same,GI50,LOX IMVI,> 100 µM (inactive)
same,GI50,LXFL 529,> 100 µM (inactive)
same,GI50,M14,> 100 µM (inactive)
same,GI50,M19-MEL,> 100 µM (inactive)
same,GI50,MOLT-4,> 100 µM (inactive)
same,GI50,Malme-3M,> 100 µM (inactive)
same,GI50,NCI-H226,> 100 µM (inactive)
same,GI50,NCI-H23,> 100 µM (inactive)
same,GI50,NCI-H460,> 100 µM (inactive)
same,GI50,NCI-H522,> 100 µM (inactive)
same,GI50,OVCAR-3,> 100 µM (inactive)
same,GI50,OVCAR-4,> 100 µM (inactive)
same,GI50,OVCAR-5,> 100 µM (inactive)
same,GI50,OVCAR-8,> 100 µM (inactive)
same,GI50,RXF 393,> 100 µM (inactive)
same,GI50,RXF 631,> 100 µM (inactive)
same,GI50,SF-268,> 100 µM (inactive)
same,GI50,SF-295,> 100 µM (inactive)
same,GI50,SF-539,> 100 µM (inactive)
same,GI50,SK-MEL-28,> 100 µM (inactive)
same,GI50,SK-MEL-2,> 100 µM (inactive)
same,GI50,SK-MEL-5,> 100 µM (inactive)
same,GI50,SK-OV-3,> 100 µM (inactive)
same,GI50,SN12C,> 100 µM (inactive)
same,GI50,SNB-19,> 100 µM (inactive)
same,GI50,SNB-75,> 100 µM (inactive)
same,GI50,SNB-78,> 100 µM (inactive)
same,GI50,SR,> 100 µM (inactive)
same,GI50,SW-620,> 100 µM (inactive)
same,GI50,TK-10,> 100 µM (inactive)
same,GI50,U-251,> 100 µM (inactive)
same,GI50,UACC-257,> 100 µM (inactive)
same,GI50,UACC-62,> 100 µM (inactive)
same,GI50,UO-31,> 100 µM (inactive)
CC1(C)COC(c2cccc3c2C(=O)c2cccc(Cl)c2-3)=N1,GI50,786-0,39.4 µM (inactive)
same,GI50,A498,32.1 µM (inactive)
same,GI50,A549,58.1 µM (inactive)
same,GI50,ACHN,51.1 µM (inactive)
same,GI50,CAKI-1,55 µM (inactive)
same,GI50,CCRF-CEM,43 µM (inactive)
same,GI50,COLO 205,42.9 µM (inactive)
same,GI50,DMS-114,36 µM (inactive)
same,GI50,DMS-273,51.4 µM (inactive)
same,GI50,EKVX,38.3 µM (inactive)
same,GI50,HCC 2998,29.7 µM (inactive)
same,GI50,HCT-15,56.4 µM
same,GI50,HL-60,28.4 µM (inactive)
same,GI50,HT-29,32 µM (inactive)
same,GI50,IGROV-1,> 100 µM (inactive)
same,GI50,K562,33.7 µM (inactive)
same,GI50,KM-20L2,39.9 µM (inactive)
same,GI50,KM12,47.9 µM (inactive)
same,GI50,LOX IMVI,51.9 µM (inactive)
same,GI50,LXFL 529,37.7 µM (inactive)
same,GI50,M14,47.9 µM (inactive)
same,GI50,MOLT-4,29.2 µM (inactive)
same,GI50,Malme-3M,84.7 µM (inactive)
same,GI50,NCI-H23,52.5 µM (inactive)
same,GI50,NCI-H460,50.4 µM (inactive)
same,GI50,NCI-H522,31.8 µM (inactive)
same,GI50,OVCAR-3,78.2 µM (inactive)
same,GI50,OVCAR-4,44.1 µM (inactive)
same,GI50,OVCAR-5,> 100 µM (inactive)
same,GI50,OVCAR-8,38.4 µM (inactive)
same,GI50,RPMI-8226,31.7 µM (inactive)
same,GI50,RXF 393,22.7 µM (inactive)
same,GI50,RXF 631,74.3 µM (inactive)
same,GI50,SF-268,56.5 µM (inactive)
same,GI50,SF-295,48.4 µM (inactive)
same,GI50,SF-539,68.7 µM (inactive)
same,GI50,SK-MEL-28,58.7 µM (inactive)
same,GI50,SK-MEL-2,> 100 µM (inactive)
same,GI50,SK-MEL-5,25.3 µM (inactive)
same,GI50,SK-OV-3,48.8 µM (inactive)
same,GI50,SN12C,74 µM (inactive)
same,GI50,SNB-19,21.1 µM (inactive)
same,GI50,SNB-75,41.7 µM (inactive)
same,GI50,SNB-78,97.1 µM (inactive)
same,GI50,SW-620,37.8 µM (inactive)
same,GI50,TK-10,41.7 µM (inactive)
same,GI50,U-251,68.4 µM (inactive)
same,GI50,UACC-257,33.7 µM (inactive)
same,GI50,UACC-62,51.5 µM (inactive)
same,GI50,UO-31,27.1 µM (inactive)
same,GI50,XF498,46.7 µM (inactive)
